Calls of active or inactive are those of the source. Rule as the data show it, for most assays here: actives have a measured Kd and inactives only a lower limit.
These compounds were tested against Dual specificity tyrosine-phosphorylation-regulated kinase 1A (Homo sapiens, UniProt Q13627). Settings: not given.
Also: in the data inactive means no Kd found up to 30 µM.

Row | SMILES | Kd
1 | Cn1cc(-c2ccc3nnc(C(F)(F)c4ccc5ncccc5c4)n3n2)cn1 [JNJ-38877605] | > 30 µM (inactive)
2 | Cc1c(F)cc(C(=O)NC2CC2)cc1-c1ccc(C(=O)NCC(C)(C)C)cn1 [LOSMAPIMOD] | > 30 µM (inactive)
3 | O=C(O)[C@]1(Cc2cccc(Nc3nccs3)n2)CC[C@@H](Oc2cccc(Cl)c2F)CC1 [MK-5108] | > 30 µM (inactive)

These compounds were tested against Platelet-derived growth factor receptor beta (Homo sapiens, UniProt P09619). Settings: not given.
Sequence of Platelet-derived growth factor receptor beta (P09619 whole entry): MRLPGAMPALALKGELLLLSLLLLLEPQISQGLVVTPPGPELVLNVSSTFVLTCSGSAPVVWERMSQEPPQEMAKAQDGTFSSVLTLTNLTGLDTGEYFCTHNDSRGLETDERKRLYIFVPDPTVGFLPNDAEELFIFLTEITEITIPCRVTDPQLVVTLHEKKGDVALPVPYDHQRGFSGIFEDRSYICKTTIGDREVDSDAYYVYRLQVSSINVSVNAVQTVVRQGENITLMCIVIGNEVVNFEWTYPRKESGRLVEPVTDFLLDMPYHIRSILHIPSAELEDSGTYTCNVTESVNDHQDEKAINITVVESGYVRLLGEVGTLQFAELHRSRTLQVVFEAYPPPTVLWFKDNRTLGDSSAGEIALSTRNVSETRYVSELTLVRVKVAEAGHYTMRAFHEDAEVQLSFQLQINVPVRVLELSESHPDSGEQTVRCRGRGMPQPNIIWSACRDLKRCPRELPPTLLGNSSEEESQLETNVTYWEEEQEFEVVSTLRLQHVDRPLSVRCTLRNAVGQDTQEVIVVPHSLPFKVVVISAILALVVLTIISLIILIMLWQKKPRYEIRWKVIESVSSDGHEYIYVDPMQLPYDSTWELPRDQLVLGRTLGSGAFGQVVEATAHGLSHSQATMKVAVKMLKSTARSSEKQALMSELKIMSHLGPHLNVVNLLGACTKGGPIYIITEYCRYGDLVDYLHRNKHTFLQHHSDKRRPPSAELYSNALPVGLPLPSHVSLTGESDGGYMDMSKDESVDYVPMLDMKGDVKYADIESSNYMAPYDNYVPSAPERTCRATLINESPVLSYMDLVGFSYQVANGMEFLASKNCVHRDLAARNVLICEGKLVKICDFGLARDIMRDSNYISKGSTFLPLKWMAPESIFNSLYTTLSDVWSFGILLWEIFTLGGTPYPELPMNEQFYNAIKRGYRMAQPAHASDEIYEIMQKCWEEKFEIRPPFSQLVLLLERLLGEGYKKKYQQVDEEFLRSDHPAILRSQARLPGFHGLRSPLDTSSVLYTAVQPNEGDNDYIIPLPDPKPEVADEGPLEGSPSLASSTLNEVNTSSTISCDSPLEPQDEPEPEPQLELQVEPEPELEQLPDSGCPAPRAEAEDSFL

Row | SMILES | Kd
4 | Cn1cc(-c2ccc3nnc(C(F)(F)c4ccc5ncccc5c4)n3n2)cn1 [JNJ-38877605] | > 30 µM (inactive)
5 | Cc1c(F)cc(C(=O)NC2CC2)cc1-c1ccc(C(=O)NCC(C)(C)C)cn1 [LOSMAPIMOD] | > 30 µM (inactive)
6 | O=C(O)[C@]1(Cc2cccc(Nc3nccs3)n2)CC[C@@H](Oc2cccc(Cl)c2F)CC1 [MK-5108] | > 30 µM (inactive)

Each compound was assayed against Ribosomal protein S6 kinase beta-1 (Homo sapiens, UniProt P23443). Settings: not given.
Sequence of Ribosomal protein S6 kinase beta-1 (P23443 whole entry): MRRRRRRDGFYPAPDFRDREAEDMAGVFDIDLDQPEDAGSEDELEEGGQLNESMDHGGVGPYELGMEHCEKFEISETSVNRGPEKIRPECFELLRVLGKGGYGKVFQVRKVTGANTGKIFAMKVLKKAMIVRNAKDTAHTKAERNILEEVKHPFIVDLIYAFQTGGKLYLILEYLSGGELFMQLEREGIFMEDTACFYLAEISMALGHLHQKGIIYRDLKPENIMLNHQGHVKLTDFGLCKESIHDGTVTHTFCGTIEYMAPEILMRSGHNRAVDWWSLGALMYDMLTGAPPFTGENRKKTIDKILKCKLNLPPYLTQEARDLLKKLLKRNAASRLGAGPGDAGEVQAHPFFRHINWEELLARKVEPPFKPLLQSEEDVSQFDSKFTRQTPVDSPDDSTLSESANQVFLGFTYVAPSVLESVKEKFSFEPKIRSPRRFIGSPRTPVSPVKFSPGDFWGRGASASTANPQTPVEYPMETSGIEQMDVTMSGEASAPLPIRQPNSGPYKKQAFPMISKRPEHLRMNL

Row | SMILES | Kd
7 | Cn1cc(-c2ccc3nnc(C(F)(F)c4ccc5ncccc5c4)n3n2)cn1 [JNJ-38877605] | > 30 µM (inactive)
8 | Cc1c(F)cc(C(=O)NC2CC2)cc1-c1ccc(C(=O)NCC(C)(C)C)cn1 [LOSMAPIMOD] | > 30 µM (inactive)
9 | O=C(O)[C@]1(Cc2cccc(Nc3nccs3)n2)CC[C@@H](Oc2cccc(Cl)c2F)CC1 [MK-5108] | > 30 µM (inactive)

The compounds below were run against Cyclin-dependent kinase 6 (Homo sapiens, UniProt Q00534). Settings: not given.
Sequence of Cyclin-dependent kinase 6 (Q00534 whole entry): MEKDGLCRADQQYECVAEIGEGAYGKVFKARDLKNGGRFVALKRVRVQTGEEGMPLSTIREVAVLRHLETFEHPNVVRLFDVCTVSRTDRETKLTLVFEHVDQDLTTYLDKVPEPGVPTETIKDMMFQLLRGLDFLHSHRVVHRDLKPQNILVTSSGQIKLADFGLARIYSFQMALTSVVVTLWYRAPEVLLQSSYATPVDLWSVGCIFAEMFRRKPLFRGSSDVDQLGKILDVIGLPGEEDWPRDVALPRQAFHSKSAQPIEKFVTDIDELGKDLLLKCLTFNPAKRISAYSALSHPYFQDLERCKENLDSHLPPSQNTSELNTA

Row | SMILES | Kd
10 | Cn1cc(-c2ccc3nnc(C(F)(F)c4ccc5ncccc5c4)n3n2)cn1 [JNJ-38877605] | > 30 µM (inactive)
11 | Cc1c(F)cc(C(=O)NC2CC2)cc1-c1ccc(C(=O)NCC(C)(C)C)cn1 [LOSMAPIMOD] | > 30 µM (inactive)
12 | O=C(O)[C@]1(Cc2cccc(Nc3nccs3)n2)CC[C@@H](Oc2cccc(Cl)c2F)CC1 [MK-5108] | > 30 µM (inactive)

What follows are compounds tested against Glycogen synthase kinase-3 beta (Homo sapiens, UniProt P49841). Settings: not given.
Sequence of Glycogen synthase kinase-3 beta (P49841 whole entry): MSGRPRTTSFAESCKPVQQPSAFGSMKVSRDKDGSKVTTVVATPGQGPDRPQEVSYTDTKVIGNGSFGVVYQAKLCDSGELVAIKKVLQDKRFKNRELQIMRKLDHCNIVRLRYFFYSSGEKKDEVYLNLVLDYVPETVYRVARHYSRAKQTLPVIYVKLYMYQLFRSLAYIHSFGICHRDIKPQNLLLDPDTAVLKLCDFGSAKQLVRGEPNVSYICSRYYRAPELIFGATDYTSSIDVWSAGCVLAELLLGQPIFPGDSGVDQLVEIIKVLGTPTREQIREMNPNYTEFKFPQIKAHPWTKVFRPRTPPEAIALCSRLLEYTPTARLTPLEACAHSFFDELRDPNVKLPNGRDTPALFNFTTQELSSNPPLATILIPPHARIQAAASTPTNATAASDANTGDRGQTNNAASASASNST

Row | SMILES | Kd
13 | Cn1cc(-c2ccc3nnc(C(F)(F)c4ccc5ncccc5c4)n3n2)cn1 [JNJ-38877605] | > 30 µM (inactive)
14 | Cc1c(F)cc(C(=O)NC2CC2)cc1-c1ccc(C(=O)NCC(C)(C)C)cn1 [LOSMAPIMOD] | > 30 µM (inactive)
15 | O=C(O)[C@]1(Cc2cccc(Nc3nccs3)n2)CC[C@@H](Oc2cccc(Cl)c2F)CC1 [MK-5108] | > 30 µM (inactive)

Each compound was assayed against T1, RNA cytidine acetyltransferase (Homo sapiens, UniProt Q9H0A0). Settings: not given.
T1 sequence (Q9H0A0 whole entry): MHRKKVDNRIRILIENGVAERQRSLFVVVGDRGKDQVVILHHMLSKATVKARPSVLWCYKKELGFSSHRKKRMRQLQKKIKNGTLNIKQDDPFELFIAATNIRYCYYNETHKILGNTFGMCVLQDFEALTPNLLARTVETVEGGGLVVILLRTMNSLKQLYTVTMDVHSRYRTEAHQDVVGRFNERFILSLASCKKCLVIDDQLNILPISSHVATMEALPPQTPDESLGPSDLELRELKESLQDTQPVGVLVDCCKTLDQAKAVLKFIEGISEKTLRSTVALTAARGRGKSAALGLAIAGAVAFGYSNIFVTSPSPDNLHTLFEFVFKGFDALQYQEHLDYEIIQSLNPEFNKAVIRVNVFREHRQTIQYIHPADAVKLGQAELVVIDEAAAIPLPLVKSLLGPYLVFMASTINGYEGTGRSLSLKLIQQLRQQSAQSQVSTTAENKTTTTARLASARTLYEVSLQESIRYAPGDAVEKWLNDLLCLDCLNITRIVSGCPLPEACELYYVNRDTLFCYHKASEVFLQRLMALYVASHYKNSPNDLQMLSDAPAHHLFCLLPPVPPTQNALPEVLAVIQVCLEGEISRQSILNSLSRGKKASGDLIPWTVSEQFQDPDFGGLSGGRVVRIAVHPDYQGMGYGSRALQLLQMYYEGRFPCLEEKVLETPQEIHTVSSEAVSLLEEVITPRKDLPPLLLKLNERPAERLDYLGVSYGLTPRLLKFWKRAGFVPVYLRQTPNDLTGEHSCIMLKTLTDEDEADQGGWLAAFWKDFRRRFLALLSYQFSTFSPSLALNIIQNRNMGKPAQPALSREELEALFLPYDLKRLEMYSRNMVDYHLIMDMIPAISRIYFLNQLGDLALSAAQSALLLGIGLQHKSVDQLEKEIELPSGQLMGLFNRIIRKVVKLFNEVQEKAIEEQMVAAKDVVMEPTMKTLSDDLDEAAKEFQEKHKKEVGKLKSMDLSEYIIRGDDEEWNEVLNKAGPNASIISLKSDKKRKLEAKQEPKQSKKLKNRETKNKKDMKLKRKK

Row | SMILES | Kd
16 | Cn1cc(-c2ccc3nnc(C(F)(F)c4ccc5ncccc5c4)n3n2)cn1 [JNJ-38877605] | > 30 µM (inactive)
17 | Cc1c(F)cc(C(=O)NC2CC2)cc1-c1ccc(C(=O)NCC(C)(C)C)cn1 [LOSMAPIMOD] | > 30 µM (inactive)
18 | O=C(O)[C@]1(Cc2cccc(Nc3nccs3)n2)CC[C@@H](Oc2cccc(Cl)c2F)CC1 [MK-5108] | > 30 µM (inactive)

Each compound was assayed against T2, Uncharacterized protein FLJ45252 (Homo sapiens, UniProt Q6ZSR9). Settings: read-out: Kd apparent; k-562, colo 205, sk-n-be(2) and mv-4-11.
T2 sequence (Q6ZSR9 whole entry): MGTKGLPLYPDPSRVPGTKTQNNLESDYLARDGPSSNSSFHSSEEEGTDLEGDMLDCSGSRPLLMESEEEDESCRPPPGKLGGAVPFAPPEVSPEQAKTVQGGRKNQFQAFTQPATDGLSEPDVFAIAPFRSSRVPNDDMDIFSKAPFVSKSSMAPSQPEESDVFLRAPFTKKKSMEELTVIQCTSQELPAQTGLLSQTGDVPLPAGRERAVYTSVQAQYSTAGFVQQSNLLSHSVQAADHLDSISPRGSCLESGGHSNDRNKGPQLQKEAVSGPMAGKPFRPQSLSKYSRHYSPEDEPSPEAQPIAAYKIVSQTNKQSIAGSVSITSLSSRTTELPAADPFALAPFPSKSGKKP

Row | SMILES | Kd
19 | Cn1cc(-c2ccc3nnc(C(F)(F)c4ccc5ncccc5c4)n3n2)cn1 [JNJ-38877605] | > 30 µM (inactive)
20 | Cc1c(F)cc(C(=O)NC2CC2)cc1-c1ccc(C(=O)NCC(C)(C)C)cn1 [LOSMAPIMOD] | > 30 µM (inactive)
21 | O=C(O)[C@]1(Cc2cccc(Nc3nccs3)n2)CC[C@@H](Oc2cccc(Cl)c2F)CC1 [MK-5108] | > 30 µM (inactive)

The compounds below were run against Rho-associated protein kinase 2 (Homo sapiens, UniProt O75116). Settings: not given.
Sequence of Rho-associated protein kinase 2 (O75116 whole entry): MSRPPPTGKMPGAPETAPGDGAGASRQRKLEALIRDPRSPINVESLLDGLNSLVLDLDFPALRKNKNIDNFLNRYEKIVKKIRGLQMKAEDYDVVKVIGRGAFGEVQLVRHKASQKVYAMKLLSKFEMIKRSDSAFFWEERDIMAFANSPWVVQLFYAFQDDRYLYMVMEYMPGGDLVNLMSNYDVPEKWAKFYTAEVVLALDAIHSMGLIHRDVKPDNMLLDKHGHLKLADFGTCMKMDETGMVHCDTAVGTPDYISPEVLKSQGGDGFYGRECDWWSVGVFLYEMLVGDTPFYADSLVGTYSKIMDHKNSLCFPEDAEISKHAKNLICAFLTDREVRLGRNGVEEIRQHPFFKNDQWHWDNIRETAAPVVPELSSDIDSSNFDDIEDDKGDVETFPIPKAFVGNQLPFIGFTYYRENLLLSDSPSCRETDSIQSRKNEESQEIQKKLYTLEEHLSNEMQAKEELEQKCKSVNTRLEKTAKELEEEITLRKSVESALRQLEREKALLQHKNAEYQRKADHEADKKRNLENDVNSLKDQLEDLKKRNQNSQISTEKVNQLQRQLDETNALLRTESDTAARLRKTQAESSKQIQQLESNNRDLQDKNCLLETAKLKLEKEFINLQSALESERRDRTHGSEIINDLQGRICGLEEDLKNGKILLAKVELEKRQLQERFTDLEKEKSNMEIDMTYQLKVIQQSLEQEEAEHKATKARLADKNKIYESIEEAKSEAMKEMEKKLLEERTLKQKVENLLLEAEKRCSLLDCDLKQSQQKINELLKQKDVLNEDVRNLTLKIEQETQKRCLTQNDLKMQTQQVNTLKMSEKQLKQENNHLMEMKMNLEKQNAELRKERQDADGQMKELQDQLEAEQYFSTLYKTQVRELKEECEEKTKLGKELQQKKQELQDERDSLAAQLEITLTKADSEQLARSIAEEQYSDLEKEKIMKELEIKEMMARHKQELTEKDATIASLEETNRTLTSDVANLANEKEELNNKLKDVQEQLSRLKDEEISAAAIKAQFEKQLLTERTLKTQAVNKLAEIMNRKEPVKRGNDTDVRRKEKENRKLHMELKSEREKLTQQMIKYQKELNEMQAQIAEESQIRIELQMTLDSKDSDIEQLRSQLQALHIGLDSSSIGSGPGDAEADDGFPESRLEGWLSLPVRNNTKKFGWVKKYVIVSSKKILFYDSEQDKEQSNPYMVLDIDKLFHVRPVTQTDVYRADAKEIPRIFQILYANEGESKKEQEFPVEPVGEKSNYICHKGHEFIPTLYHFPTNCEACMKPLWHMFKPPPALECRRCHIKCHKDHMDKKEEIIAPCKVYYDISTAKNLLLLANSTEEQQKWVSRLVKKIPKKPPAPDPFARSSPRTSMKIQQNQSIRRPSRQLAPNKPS

Row | SMILES | Kd
22 | Cn1cc(-c2ccc3nnc(C(F)(F)c4ccc5ncccc5c4)n3n2)cn1 [JNJ-38877605] | > 30 µM (inactive)
23 | Cc1c(F)cc(C(=O)NC2CC2)cc1-c1ccc(C(=O)NCC(C)(C)C)cn1 [LOSMAPIMOD] | > 30 µM (inactive)
24 | O=C(O)[C@]1(Cc2cccc(Nc3nccs3)n2)CC[C@@H](Oc2cccc(Cl)c2F)CC1 [MK-5108] | > 30 µM (inactive)

What follows are compounds tested against T3, Signal recognition particle receptor subunit alpha (Homo sapiens, UniProt P08240). Settings: not given.
T3 sequence (P08240 whole entry): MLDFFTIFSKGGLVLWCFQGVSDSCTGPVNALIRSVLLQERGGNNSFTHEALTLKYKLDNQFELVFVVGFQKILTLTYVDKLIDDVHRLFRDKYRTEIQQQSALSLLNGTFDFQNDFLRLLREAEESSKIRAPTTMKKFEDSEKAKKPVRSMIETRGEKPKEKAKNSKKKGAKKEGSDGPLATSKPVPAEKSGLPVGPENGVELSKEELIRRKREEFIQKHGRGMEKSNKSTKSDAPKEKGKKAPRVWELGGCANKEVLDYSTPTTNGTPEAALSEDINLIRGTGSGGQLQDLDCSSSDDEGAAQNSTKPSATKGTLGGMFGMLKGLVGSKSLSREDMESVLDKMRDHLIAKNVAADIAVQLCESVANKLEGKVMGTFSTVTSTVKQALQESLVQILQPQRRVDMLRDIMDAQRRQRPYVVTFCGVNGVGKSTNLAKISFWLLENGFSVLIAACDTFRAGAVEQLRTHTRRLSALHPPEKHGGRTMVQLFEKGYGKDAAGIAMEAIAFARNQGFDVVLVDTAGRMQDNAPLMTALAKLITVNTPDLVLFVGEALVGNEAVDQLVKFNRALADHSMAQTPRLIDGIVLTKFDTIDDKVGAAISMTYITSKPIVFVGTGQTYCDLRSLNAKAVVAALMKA

Row | SMILES | Kd
25 | Cn1cc(-c2ccc3nnc(C(F)(F)c4ccc5ncccc5c4)n3n2)cn1 [JNJ-38877605] | > 30 µM (inactive)
26 | Cc1c(F)cc(C(=O)NC2CC2)cc1-c1ccc(C(=O)NCC(C)(C)C)cn1 [LOSMAPIMOD] | > 30 µM (inactive)
27 | O=C(O)[C@]1(Cc2cccc(Nc3nccs3)n2)CC[C@@H](Oc2cccc(Cl)c2F)CC1 [MK-5108] | > 30 µM (inactive)

What follows are compounds tested against T4, TGF-beta receptor type-1 (Homo sapiens, UniProt P36897). Settings: not given.
T4 sequence (P36897 whole entry): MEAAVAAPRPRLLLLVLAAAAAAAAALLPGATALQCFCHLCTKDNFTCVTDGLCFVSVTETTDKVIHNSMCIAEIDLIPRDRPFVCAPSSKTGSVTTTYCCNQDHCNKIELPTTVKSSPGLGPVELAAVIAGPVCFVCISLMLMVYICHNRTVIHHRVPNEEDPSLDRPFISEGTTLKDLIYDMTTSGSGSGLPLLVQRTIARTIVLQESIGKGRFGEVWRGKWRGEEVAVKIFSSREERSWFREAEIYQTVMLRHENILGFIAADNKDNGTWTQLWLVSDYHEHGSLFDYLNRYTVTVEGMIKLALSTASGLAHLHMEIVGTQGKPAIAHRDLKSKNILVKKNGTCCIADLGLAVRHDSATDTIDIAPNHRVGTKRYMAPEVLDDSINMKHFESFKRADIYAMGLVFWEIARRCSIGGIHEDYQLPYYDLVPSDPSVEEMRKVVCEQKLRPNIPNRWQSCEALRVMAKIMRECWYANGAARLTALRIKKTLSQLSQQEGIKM

Row | SMILES | Kd
28 | Cn1cc(-c2ccc3nnc(C(F)(F)c4ccc5ncccc5c4)n3n2)cn1 [JNJ-38877605] | > 30 µM (inactive)
29 | Cc1c(F)cc(C(=O)NC2CC2)cc1-c1ccc(C(=O)NCC(C)(C)C)cn1 [LOSMAPIMOD] | > 30 µM (inactive)
30 | O=C(O)[C@]1(Cc2cccc(Nc3nccs3)n2)CC[C@@H](Oc2cccc(Cl)c2F)CC1 [MK-5108] | 1.7 µM (active)

The compounds below were run against Mitogen-activated protein kinase 3 (Homo sapiens, UniProt P27361). Settings: not given.
Sequence of Mitogen-activated protein kinase 3 (P27361 whole entry): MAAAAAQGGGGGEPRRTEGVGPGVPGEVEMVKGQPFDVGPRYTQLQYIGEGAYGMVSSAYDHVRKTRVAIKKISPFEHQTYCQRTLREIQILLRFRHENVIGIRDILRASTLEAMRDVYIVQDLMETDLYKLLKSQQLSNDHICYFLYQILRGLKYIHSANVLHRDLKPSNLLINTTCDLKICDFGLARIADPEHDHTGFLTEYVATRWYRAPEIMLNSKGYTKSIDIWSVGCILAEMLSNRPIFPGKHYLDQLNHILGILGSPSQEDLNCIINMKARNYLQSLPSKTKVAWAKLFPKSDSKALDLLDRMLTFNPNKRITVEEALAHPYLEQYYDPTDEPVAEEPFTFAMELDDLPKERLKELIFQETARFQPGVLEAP

Row | SMILES | Kd
31 | Cn1cc(-c2ccc3nnc(C(F)(F)c4ccc5ncccc5c4)n3n2)cn1 [JNJ-38877605] | > 30 µM (inactive)
32 | Cc1c(F)cc(C(=O)NC2CC2)cc1-c1ccc(C(=O)NCC(C)(C)C)cn1 [LOSMAPIMOD] | > 30 µM (inactive)
33 | O=C(O)[C@]1(Cc2cccc(Nc3nccs3)n2)CC[C@@H](Oc2cccc(Cl)c2F)CC1 [MK-5108] | > 30 µM (inactive)
